Assay results: patent publication US20230227427A1, “IL-17A MODULATORS” (SANOFI, priority 2010, published 2023)
Read-outs that look alike come from different tables or passages of the source.

Biological target: T1, human recombinant IL-17A (Homo sapiens, UniProt Q16552)
T1 construct: purchased R&D Systems 7955-IL/CF
T1 sequence (Q16552 24-155): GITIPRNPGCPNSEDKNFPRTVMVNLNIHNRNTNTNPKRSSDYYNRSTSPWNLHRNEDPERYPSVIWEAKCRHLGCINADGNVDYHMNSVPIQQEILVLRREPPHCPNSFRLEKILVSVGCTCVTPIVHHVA
Assay: IL-17A AlphaLISA assay (block binding of IL-17A to its receptor IL-17RA)
Conditions: read-out: AlphaLISA pIC50 (converted)
Method: The ability of the compounds to block binding of IL-17A to its receptor, IL-17RA, was analysed in a competition assay using AlphaLISA technology (Perkin Elmer). The assay is a bead based AlphaLISA where the IL-17RA is captured on the acceptor bead via an Fc tag and IL-17A is captured on the streptavidin donor bead via a biotinylated anti-IL17A antibody.
Assay buffer was prepared by adding 0.05% Tween-20 (v/v) and 0.1% BSA to Phosphate Buffered Saline (PBS). The assay was carried out in 384-well white low volume plates (Corning 4512). 10 µL of a 7.5 nM stock of human recombinant IL-17A (R&D Systems 7955-IL/CF) diluted in assay buffer was dispensed into the assay plate and compounds or DMSO vehicle control were added in a volume of 75 nL using a D300 dispenser (Hewlett Packard). The compounds were pre-incubated with the IL-17A for 24 h at room temperature (or for 30 min, where indicated by * in Table A below) prior to addition of 5 μL of a 5 nM stock of human recombinant IL-17RA/Fc chimera (R&D Systems 177-IR-100) diluted in assay buffer. The IL-17A was incubated with the receptor for a further 90 minutes at room temperature before addition of 5 μL of a mixture of anti-human Fc IgG acceptor beads (75 μg/mL, Perkin Elmer AL103C) and anti-IL-17A biotin conjugated antibody (5 nM, Enzo Life Sciences, ENZ-ABS278-0100) in assay buffer. After a further 30 min incubation at room temperature, 5 μL of streptavidin donor beads ([…], Perkin Elmer 6760002S) were added and the plate was incubated for 3 h in the dark.
The luminescence signal was measured using an Enspire plate reader (Perkin Elmer) with excitation at 680 nm and emission at 615 nm. Data were analysed using GraphPad Prism and fitted to a 4-parameter logistic equation. The IC50 values were calculated using the DMSO vehicle as the negative control and a high concentration (6 μM) of a reference IL-17A inhibitor as the positive control.
Activity of the Example compounds is reported as a PIC50 value in Table A.

[1] = compounds pre-incubated with the IL-17A for 30 min (indicated by * in Table A)
[2] = compounds pre-incubated with the IL-17A for 24 h at room temperature

In the case of `Cc1cncc(C)c1-c1ccc(NC(=O)[C@@H](NC(=O)c2ccnn2C)C2CCC(F)(F)CC2)cc1` (single isomer, unassigned) [Example 98], the IC50 [1] is reported as 251 nM.

With `Cc1cncc(C)c1-c1ccc(NC(=O)[C@@H](NC(=O)c2ccnn2C)C2CCC(C)(C)CC2)cc1` (single isomer, unassigned) [Example 100] the IC50 [1] was 200 nM.

`Cc1nccc(-c2ccc(NC(=O)[C@@H](NC(=O)c3ccnn3C)C(c3ccccc3)c3ccccc3)cc2)c1C` [Example 1, (S)—N-(1-((4-(2,3-dimethylpyridin-4-yl)phenyl)amino)-1-oxo-3,3-diphenylpropan-2-yl)-1-methyl-1H-pyrazole-5-carboxamide] showed an IC50 [2] of 50.1 nM.

With `Cn1nccc1C(=O)N[C@H](C(=O)Nc1ccc(-c2ccncc2Cl)cc1)C(c1ccccc1)c1ccccc1` [Example 2, (S)—N-(1-((4-(3-chloropyridin-4-yl)phenyl)amino)-1-oxo-3,3-diphenylpropan-2-yl)-1-methyl-1H-pyrazole-5-carboxamide] the IC50 [2] was 31.6 nM.

`COc1cnccc1-c1ccc(NC(=O)[C@@H](NC(=O)c2ccnn2C)C(c2ccccc2)c2ccccc2)cc1` [Example 3, (S)—N-(1-((4-(3-methoxypyridin-4-yl)phenyl)amino)-1-oxo-3,3-diphenylpropan-2-yl)-1-methyl-1H-pyrazole-5-carboxamide] was tested, and the IC50 [2] was 12.6 nM.

With `Cc1cnccc1-c1ccc(NC(=O)[C@@H](NC(=O)c2ccnn2C)C(c2ccccc2)c2ccccc2)cc1` [Example 4, (S)-1-methyl-N-(1-((4-(3-methylpyridin-4-yl)phenyl)amino)-1-oxo-3,3-diphenylpropan-2-yl)-1H-pyrazole-5-carboxamide] the IC50 [2] was 20 nM.

`Cn1nccc1C(=O)N[C@H](C(=O)Nc1ccc(-c2ccncc2C(F)(F)F)cc1)C(c1ccccc1)c1ccccc1` [Example 5, (S)-1-methyl-N-(1-oxo-3,3-diphenyl-1-((4-(3-(trifluoromethyl)pyridin-4-yl)phenyl)amino)propan-2-yl)-1H-pyrazole-5-carboxamide] was tested, and the IC50 [2] was 63.1 nM.

`Cc1cncc(C)c1-c1ccc(NC(=O)[C@@H](NC(=O)c2ccnn2C)C(c2ccccc2)c2ccccc2)cc1` [Example 6, (S)—N-(1-((4-(3,5-dimethylpyridin-4-yl)phenyl)amino)-1-oxo-3,3-diphenylpropan-2-yl)-1-methyl-1H-pyrazole-5-carboxamide] gave an IC50 [2] of 12.6 nM.

`CNc1cnccc1-c1ccc(NC(=O)[C@@H](NC(=O)c2ccnn2C)C(c2ccccc2)c2ccccc2)cc1` [Example 7, (S)-1-methyl-N-(1-((4-(3-(methylamino)pyridin-4-yl)phenyl)amino)-1-oxo-3,3-diphenylpropan-2-yl)-1H-pyrazole-5-carboxamide] gave an IC50 [2] of 12.6 nM.

Compound `CN(C)c1cnccc1-c1ccc(NC(=O)[C@@H](NC(=O)c2ccnn2C)C(c2ccccc2)c2ccccc2)cc1` [Example 8, (S)—N-(1-((4-(3-(dimethylamino)pyridin-4-yl)phenyl)amino)-1-oxo-3,3-diphenylpropan-2-yl)-1-methyl-1H-pyrazole-5-carboxamide] has an IC50 [2] of 15.8 nM.

For `COc1cncc(OC)c1-c1ccc(NC(=O)[C@@H](NC(=O)c2ccnn2C)C(c2ccccc2)c2ccccc2)cc1` [Example 9, (S)—N-(1-((4-(3,5-dimethoxypyridin-4-yl)phenyl)amino)-1-oxo-3,3-diphenylpropan-2-yl)-1-methyl-1H-pyrazole-5-carboxamide], the IC50 [2] was 6.31 nM.

`COc1cncc(F)c1-c1ccc(NC(=O)[C@@H](NC(=O)c2ccnn2C)C(c2ccccc2)c2ccccc2)cc1` [Example 10, (S)—N-(1-((4-(3-fluoro-5-methoxypyridin-4-yl)phenyl)amino)-1-oxo-3,3-diphenylpropan-2-yl)-1-methyl-1H-pyrazole-5-carboxamide] was tested, and the IC50 [2] was 7.94 nM.

`Cc1[nH]c(=O)ccc1-c1ccc(NC(=O)[C@@H](NC(=O)c2ccnn2C)C(c2ccccc2)c2ccccc2)cc1` [Example 11, (S)-1-methyl-N-(1-((4-(2-methyl-6-oxo-1,6-dihydropyridin-3-yl)phenyl)amino)-1-oxo-3,3-diphenylpropan-2-yl)-1H-pyrazole-5-carboxamide] showed an IC50 [2] of 15.8 nM.

With `Cc1cc(=O)n(C)cc1-c1ccc(NC(=O)[C@@H](NC(=O)c2ccnn2C)C(c2ccccc2)c2ccccc2)cc1` [Example 12, (S)—N-(1-((4-(1,4-dimethyl-6-oxo-1,6-dihydropyridin-3-yl)phenyl)amino)-1-oxo-3,3-diphenylpropan-2-yl)-1-methyl-1H-pyrazole-5-carboxamide] the IC50 [2] was 10 nM.

Compound `Cc1c(-c2ccc(NC(=O)[C@@H](NC(=O)c3ccnn3C)C(c3ccccc3)c3ccccc3)cc2)ccc(=O)n1C` [Example 13, (S)—N-(1-((4-(1,2-dimethyl-6-oxo-1,6-dihydropyridin-3-yl)phenyl)amino)-1-oxo-3,3-diphenylpropan-2-yl)-1-methyl-1H-pyrazole-5-carboxamide] has an IC50 [2] of 7.94 nM.

Compound `Cc1cncc(C)c1-c1ccc(NC(=O)[C@@H](NC(=O)c2ccnn2C)C(c2ccccc2)c2ccccc2)cc1F` [Example 14, (S)—N-(1-((4-(3,5-dimethylpyridin-4-yl)-3-fluorophenyl)amino)-1-oxo-3,3-diphenylpropan-2-yl)-1-methyl-1H-pyrazole-5-carboxamide] has an IC50 [2] of 39.8 nM.

Work on `Cc1cnccc1-c1ccc(NC(=O)[C@@H](NC(=O)c2ccnn2C)C(c2ccccc2)c2ccccc2)cc1F` [Example 15, (S)—N-(1-((3-fluoro-4-(3-methylpyridin-4-yl)phenyl)amino)-1-oxo-3,3-diphenylpropan-2-yl)-1-methyl-1H-pyrazole-5-carboxamide] yielded an IC50 [2] of 50.1 nM.

Work on `Cc1c(-c2ccc(NC(=O)[C@@H](NC(=O)c3ccnn3C)C(c3ccccc3)c3ccccc3)cc2F)ccc(=O)n1C` [Example 16, (S)—N-(1-((4-(1,2-dimethyl-6-oxo-1,6-dihydropyridin-3-yl)-3-fluorophenyl)amino)-1-oxo-3,3-diphenylpropan-2-yl)-1-methyl-1H-pyrazole-5-carboxamide] yielded an IC50 [2] of 15.8 nM.

With `Cc1cc(=O)n(C)cc1-c1ccc(NC(=O)[C@@H](NC(=O)c2ccnn2C)C(c2ccccc2)c2ccccc2)cc1F` [Example 17, (S)—N-(1-((4-(1,4-dimethyl-6-oxo-1,6-dihydropyridin-3-yl)-3-fluorophenyl)amino)-1-oxo-3,3-diphenylpropan-2-yl)-1-methyl-1H-pyrazole-5-carboxamide] the IC50 [2] was 15.8 nM.

Work on `COc1cncc(F)c1-c1ccc(NC(=O)[C@@H](NC(=O)c2ccnn2C)C(c2ccccc2)c2ccccc2)cc1F` [Example 18, N-((2S)-1-((3-fluoro-4-(3-fluoro-5-methoxypyridin-4-yl)phenyl)amino)-1-oxo-3,3-diphenylpropan-2-yl)-1-methyl-1H-pyrazole-5-carboxamide] yielded an IC50 [2] of 31.6 nM.

In the case of `COc1cnccc1-c1ccc(NC(=O)[C@@H](NC(=O)c2ccnn2C)C(c2ccc(F)cc2)c2ccc(F)cc2)cc1` [Example 19, (S)—N-(1,1-bis(4-fluorophenyl)-3-((4-(3-methoxypyridin-4-yl)phenyl)amino)-3-oxopropan-2-yl)-1-methyl-1H-pyrazole-5-carboxamide], the IC50 [2] is reported as 63.1 nM.

`COc1cnccc1-c1ccc(NC(=O)[C@@H](NC(=O)c2ccnn2C)C(c2ccccc2)c2ccccc2)cc1C` [Example 20, (S)—N-(1-((4-(3-methoxypyridin-4-yl)-3-methylphenyl)amino)-1-oxo-3,3-diphenylpropan-2-yl)-1-methyl-1H-pyrazole-5-carboxamide] showed an IC50 [2] of 31.6 nM.

For `Cn1nccc1C(=O)N[C@H](C(=O)Nc1ccc(-c2ccnc3[nH]ccc23)cc1)C(c1ccccc1)c1ccccc1` [Example 21, (S)—N-(1-((4-(1H-pyrrolo[2,3-b]pyridin-4-yl)phenyl)amino)-1-oxo-3,3-diphenylpropan-2-yl)-1-methyl-1H-pyrazole-5-carboxamide], the IC50 [2] was 39.8 nM.

Compound `Cn1nccc1C(=O)N[C@H](C(=O)Nc1ccc(-c2ccnc3c2CCN3)cc1)C(c1ccccc1)c1ccccc1` [Example 22, (S)—N-(1-((4-(2,3-dihydro-1H-pyrrolo[2,3-b]pyridin-4-yl)phenyl)amino)-1-oxo-3,3-diphenylpropan-2-yl)-1-methyl-1H-pyrazole-5-carboxamide] has an IC50 [2] of 25.1 nM.

Compound `COc1cnccc1-c1ccc(NC(=O)[C@@H](NC(=O)c2ccnn2C)C(c2ccccc2)c2ccccc2)c(F)c1` [Example 23, (S)—N-(1-((2-fluoro-4-(3-methoxypyridin-4-yl)phenyl)amino)-1-oxo-3,3-diphenylpropan-2-yl)-1-methyl-1H-pyrazole-5-carboxamide] has an IC50 [2] of 39.8 nM.
